Measured values published in PMC6399351, “Cationic Intrinsically Disordered Antimicrobial Peptides (CIDAMPs) Represent a New Paradigm of Innate Defense with a Potential for Novel Anti-Infectives” (Scientific Reports, 2019).
Converted amounts (≈) assume the structure as drawn. Like-named read-outs stand apart in the source and are kept apart here. Square brackets hold non-standard residues; d marks the D form. Peptide text beside a SMILES is read from it. * marks the point of attachment. Palmitoyl = CCCCCCCCCCCCCCCC(=O)*; Dab = NCC[C@H](N)C(=O)O

What was measured:
C. albicans ATCC 24433 = experiment: CFU assay of antimicrobial activity; type: cell-based, Candida albicans; settings: 10 mM NaP, pH 5.5, 1% TSB
Experimental: Bacteria were cultivated in either brain heart infusion medium (BHI), lysogeny broth (LB) or tryptic soy broth (TSB)[88]. If not otherwise stated, bacteria were incubated under shaking conditions (37 °C at 170 rpm) or as indicated on the ATCC- or DSM-data sheets. Candida albicans was cultured for 3 days on Yeast Extract-Peptone Dextrose (YPD) agar at 30 °C and yeast suspensions at appropriate density were treated with CIDAMPs as indicated.
(§1) All purified peptides and recombinant proteins were applied using a colony forming unit (CFU) assay in different media. Bacteria were grown to early log-phase in BHI, washed either with 10 mM Na-P, pH 7.4/1% TSB or pH 5.5/1% TSB, or pH 5.5 without TSB or BHI, and adjusted to a concentration of 10^4–10^5 colony forming units (CFU)/ml. For cell number control, 100 µl aliquots were diluted 1:10, 1:100 and 1:1000 and plated in duplicates on BHI agar plates. To 100 µl aliquots of the bacteria, suspended in the respective medium (10 mM Na-P buffer pH 7,0–7,4/ 1% (w/v) TSB; 10 mM Na-P buffer pH 5,5/ 1% (w/v) TSB; 10 mM Na-P buffer pH 7,0–7,4/ 1% (w/v) TSB pH 7,0–7,4/ 0,25% (w/v) glucose; 10 mM Na-P buffer pH 5,5/ 0,25% (w/v) glucose, respectively), 10 µl of a solution of the peptide or protein (two-fold dilutions, from 300 µg/ml or 150 µg/ml down to 19 ng/ml), dissolved in 0.01% (v/v) acetic acid, were added.
(§2) Then bacteria were incubated for 2 h at ambient temperature, if not otherwise stated. 10 µl of 0.01% (v/v) acetic acid, added to 100 µl aliquots of the bacteria in the respective medium, served as negative control. From each test, 1:10 and 1:100 dilutions were generated and plated as duplicates of 100 µl aliquots on BHI agar plates. After 16 h incubation at 37 °C, CFU were counted using a colony counter (Bio Kobe, Japan) and expressed as mean of the duplicate estimation to achieve a complete dose-response curve. All experiments were performed at serial dilutions in a concentration range of 100 µg/mL −25 ng/mL for recombinant HRNR fragments and 300 or 150 µg/mL–19 ng/mL for synthetic peptides.

P. aeruginosa ATCC 10145 = settings: CFU assay, 10 mM NaP
E. coli ATCC 11775 = experiment: CFU assay of antimicrobial activity; type: cell-based, Escherichia coli; settings: 10 mM NaP, pH 5.5, 1% TSB
Experimental: as §1, §2

E. coli ATCC 25922 = experiment: CO-ADD MIC, broth microdilution (CLSI); type: cell-based, Escherichia coli; settings: Mueller–Hinton broth, 5 × 10^5 CFU/mL, 18 h 37 °C, by CO-ADD
Excerpt: (§3) They were defined as the lowest peptide
(§4) Further details of the screening

[1] = tested on: Cryptococcus neoformans ATCC 208821; experiment: CO-ADD MIC, antifungal assay (CLSI); type: cell-based; settings: Yeast Nitrogen Base broth, 24 h 35 °C, by CO-ADD
Experimental: (§5) Fungi strains were cultured for 3 days on Yeast Extract-Peptone Dextrose (YPD) agar at 30 °C. A yeast suspension of 1 × 10^6 to 5 × 10^6 cells/mL (as determined by OD530) was prepared from five colonies. These stock suspensions were diluted with Yeast Nitrogen Base (YNB) broth to a final concentration of 2.5 × 10^3 CFU/mL. […] Plates were covered and incubated at 35 °C for 24 h without shaking.

[2] = tested on: Candida albicans ATCC 90028; experiment: CO-ADD MIC, antifungal assay (CLSI); type: cell-based; settings: Yeast Nitrogen Base broth, 24 h 35 °C, by CO-ADD
Experimental: as §5

[3] = tested on: Klebsiella pneumonia ATCC 700603; settings: MDR strain; CLSI, Mueller–Hinton broth, 5 × 10^5 CFU/mL, 18 h 37 °C, by CO-ADD
S. aureus ATCC 6538 = settings: CFU assay, 10 mM NaP
[4] = tested on: Staphylococcus aureus ATCC 43300; settings: MRSA; CLSI, Mueller–Hinton broth, 5 × 10^5 CFU/mL, 18 h 37 °C, by CO-ADD
[5] = tested on: Pseudomonas aeruginosa ATCC 27853; experiment: CO-ADD MIC, broth microdilution (CLSI); type: cell-based; settings: Mueller–Hinton broth, 5 × 10^5 CFU/mL, 18 h 37 °C, by CO-ADD
Excerpt: as §3, §4

[6] = tested on: Acinetobacter baumannii ATCC 19606; experiment: CO-ADD MIC, broth microdilution (CLSI); type: cell-based; settings: Mueller–Hinton broth, 5 × 10^5 CFU/mL, 18 h 37 °C, by CO-ADD
Excerpt: as §3, §4

Compound	Minimal inhibitory concentration (MIC) (E. coli ATCC 25922) [µg/mL]	Minimal inhibitory concentration (MIC) [1] [µg/mL]	Minimal inhibitory concentration (MIC) [2] [µg/mL]	Minimal inhibitory concentration (MIC) [3] [µg/mL]	LD90 (S. aureus ATCC 6538; pH 5.5, 0.25% glucose) [µg/mL]	Minimal inhibitory concentration (MIC) [4] [µg/mL]	Minimal inhibitory concentration (MIC) [5] [µg/mL]	Minimal inhibitory concentration (MIC) [6] [µg/mL]	further results
rHRNR2656–2684: recombinant HRNR fragment (GRHGSGLGHSSSHGQHGSGSGRSSSRGPY; UniProt Q86YZ3 2656-2684, looked up, fragment)	–	–	–	–	–	–	–	–	LD90 (C. albicans ATCC 24433): 6.3 µg/mL; LD100 (C. albicans ATCC 24433): >100 µg/mL; LD90 (P. aeruginosa ATCC 10145; pH 5.5, 1% TSB): 0.78 µg/mL; LD100 (P. aeruginosa ATCC 10145; pH 5.5, 1% TSB): 12.5 µg/mL; LD90 (E. coli ATCC 11775): 3.1 µg/mL; LD100 (E. coli ATCC 11775): >100 µg/mL
CCCCCCCCCCCCCCCC(=O)NCC(=O)N[C@@H](CCCNC(=N)N)C(=O)N[C@@H](CCCNC(=N)N)C(=O)NCC(=O)N[C@@H](CO)C(=O)NCC(=O)N[C@@H](CC(C)C)C(=O)NCC(=O)N[C@@H](CCCNC(=N)N)C(=O)N[C@@H](CO)C(=O)N[C@@H](CO)C(=O)N[C@@H](CO)C(=O)N[C@@H](CCCNC(=N)N)C(=O)O [Pal-HR 1-18-3H3R-GR13] (Palmitoyl-GRRGSGLGRSSSR-OH)	>32	16 (≈ 10.2 µM)	>32	>32	2.35	16 (≈ 10.2 µM)	>32	16 (≈ 10.2 µM)	–
CCCCCCCCCCCCCCCC(=O)NCC(=O)N[C@@H](CCCNC(=N)N)C(=O)N[C@@H](CCCNC(=N)N)C(=O)NCC(=O)NCC(=O)N[C@@H](CCCNC(=N)N)C(=O)NCC(=O)NCC(=O)N[C@@H](CCCNC(=N)N)C(=O)NCC(=O)N[C@@H](CCCNC(=N)N)C(=O)O [Pal-GR11] (Palmitoyl-GRRGGRGGRGR-OH)	8 (≈ 5.8 µM)	4 (≈ 2.9 µM)	4 (≈ 2.9 µM)	>32	–	4 (≈ 2.9 µM)	16 (≈ 11.6 µM)	8 (≈ 5.8 µM)	LD90 (S. aureus ATCC 6538; pH 7.3, 1% TSB): 0.3 µg/mL; LD99 (concentration of peptide which kills 99.0% of inoculum) (S. aureus ATCC 6538; pH 7.3, 1% TSB): 1.18 µg/mL
CCCCCCCCCCCCCCCC(=O)NCC(=O)N[C@H](CCCNC(=N)N)C(=O)N[C@H](CCCNC(=N)N)C(=O)NCC(=O)NCC(=O)N[C@H](CCCNC(=N)N)C(=O)NCC(=O)NCC(=O)N[C@H](CCCNC(=N)N)C(=O)NCC(=O)N[C@H](CCCNC(=N)N)C(=O)NCC(=O)N[C@H](CCCNC(=N)N)C(=O)O [(D)-Pal-GR13] (Palmitoyl-G[dR][dR]GG[dR]GG[dR]G[dR]G[dR]-OH; C-terminus assumed)	8 (≈ 5.02 µM)	2 (≈ 1.26 µM)	8 (≈ 5.02 µM)	≥32	0.075	2 (≈ 1.26 µM)	16 (≈ 10 µM)	8 (≈ 5.02 µM)	LD99 (concentration of peptide which kills 99.0% of inoculum) (S. aureus ATCC 6538; pH 5.5, 0.25% glucose): 0.59 µg/mL; LD100 (S. aureus ATCC 6538; pH 5.5, 0.25% glucose): 75 µg/mL; LD90 (P. aeruginosa ATCC 10145; pH 5.5, 0.25% glucose): 0.075 µg/mL; LD100 (P. aeruginosa ATCC 10145; pH 5.5, 0.25% glucose): 0.3 µg/mL
CCCCCCCCCCCCCCCC(=O)NCC(=O)N[C@@H](CCCNC(=N)N)C(=O)N[C@@H](CCCNC(=N)N)C(=O)NCC(=O)NCC(=O)N[C@@H](CCCNC(=N)N)C(=O)NCC(=O)NCC(=O)N[C@@H](CCCNC(=N)N)C(=O)O [Pal-GR9] (Palmitoyl-GRRGGRGGR-OH)	>32	>32	>32	>32	1.18	8 (≈ 6.86 µM)	>32	>32	LD99 (concentration of peptide which kills 99.0% of inoculum) (S. aureus ATCC 6538; pH 5.5, 0.25% glucose): 4.7 µg/mL
CCCCCCCCCCCCCCCC(=O)N[C@@H](Cc1c[nH]cn1)C(=O)NCC(=O)N[C@@H](CO)C(=O)N[C@@H](CCCNC(=N)N)C(=O)N[C@@H](CO)C(=O)NCC(=O)N[C@@H](CCC(N)=O)C(=O)N[C@@H](CO)C(=O)N[C@@H](CO)C(=O)N[C@@H](CCCNC(=N)N)C(=O)NCC(=O)N[C@@H](CCC(=O)O)C(=O)N[C@@H](CCCNC(=N)N)C(=O)N[C@@H](Cc1c[nH]cn1)C(=O)NCC(=O)N[C@@H](CO)C(=O)N[C@@H](CO)C(=O)N[C@@H](CO)C(=O)NCC(=O)N[C@@H](CO)C(=O)N[C@@H](CO)C(=O)N[C@@H](CO)C(=O)N[C@@H](Cc1c[nH]cn1)C(=O)O [Pal-HR 1-11] (Palmitoyl-HGSRSGQSSRGERHGSSSGSSSH-OH)	>32	>32	>32	>32	2.35	32 (≈ 12.6 µM)	>32	>32	–
GRRGSGLGRSSSRGGRGSGSGR [HR 1-18,4H-4R, HR1-18 variant]	>32	>32	>32	>32	150	>32	>32	>32	LD100 (S. aureus ATCC 6538; pH 5.5, 0.25% glucose): > 300 µg/mL; LD100 (S. aureus ATCC 6538; pH 7.0, 0.25% glucose): > 300 µg/mL; max.killing (S. aureus ATCC 6538; pH 7.0, 0.25% glucose): 98.8%; LD100 (P. aeruginosa ATCC 10145; pH 5.5, 0.25% glucose): 0.15 µg/mL
CCCCCCCCCCCCCCCC(=O)NCC(=O)N[C@@H](CCN)C(=O)NCC(=O)N[C@@H](CCN)C(=O)O [Pal-G-Dab4] (Palmitoyl-G[Dab]G[Dab]-OH)	>32	16 (≈ 28 µM)	>32	>32	4.7	32 (≈ 56.1 µM)	>32	32 (≈ 56.1 µM)	–
CCCCCCCCCCCCCCCC(=O)N[C@@H](CCCNC(=N)N)C(=O)NCC(=O)N[C@@H](CO)C(=O)N[C@@H](CCCNC(=N)N)C(=O)N[C@@H](CO)C(=O)NCC(=O)N[C@@H](CCC(N)=O)C(=O)N[C@@H](CO)C(=O)N[C@@H](CO)C(=O)N[C@@H](CCCNC(=N)N)C(=O)NCC(=O)N[C@@H](CCC(=O)O)C(=O)N[C@@H](CCCNC(=N)N)C(=O)N[C@@H](CCCNC(=N)N)C(=O)NCC(=O)N[C@@H](CO)C(=O)N[C@@H](CO)C(=O)N[C@@H](CO)C(=O)NCC(=O)N[C@@H](CO)C(=O)N[C@@H](CO)C(=O)N[C@@H](CO)C(=O)N[C@@H](CCCNC(=N)N)C(=O)O [Pal-HR-1-11-3H3R] (Palmitoyl-RGSRSGQSSRGERRGSSSGSSSR-OH)	32 (≈ 12.3 µM)	32 (≈ 12.3 µM)	32 (≈ 12.3 µM)	>32	0.59	32 (≈ 12.3 µM)	>32	8 (≈ 3.07 µM)	–
